“And” between values parts separate entries of the source, which are not always exact repeats. Equal entries are not always repeated. Where two headings read alike, the source gives them in different places.
Key:
[1] = molecular target: T1, tyrosinase (mushroom origin) (Agaricus bisporus, UniProt C7FF04); assay: In vitro tyrosinase inhibition with L-tyrosine as substrate; format: biochemical; details: for IC50: mushroom tyrosinase, L-tyrosine substrate, read-out: tyrosinase inhibitory IC50; for fold higher tyrosinase inhibitory effect than kojic acid: ratio of IC50 values vs kojic acid
T1 construct: purchased Sigma-Aldrich
Protocol: The in vitro inhibitory effects of SPs and their glycosides towards tyrosinase (Sigma-Aldrich; mushroom origin; 2000 Unit/mL) activities were determined using L-tyrosine as a substrate. Briefly, the reaction mixtures, comprising 100 μL phosphate buffer (pH 6.8, 100 mM), 20 μL of tyrosinase (250 U/mL) and 20 μL of varying concentrations of SPs and their glycosides (in DMSO), were preincubated at 30 °C for 10 min.

[2] = test system: intracellular ROS in TBHP-induced B16F10 cells; assay: DCFDA cellular ROS detection assay in TBHP-induced B16F10 cells; format: cell-based, murine; details: 5.0, 10 and 20 μM tested
Protocol: The intracellular reactive oxygen species (ROS) level was quantitatively determined using the dichlorofluorescin diacetate (DCFDA) cellular ROS detection assay kit (ab113851, Abcam, Cambridge, UK), according to the manufacturer’s instructions. Briefly, B16F10 cells were seeded in a 24-well plate at a density of 2 × 10^3 cells/well. The cells were washed three times using PBS and subjected to staining with 20 μM DCFDA in PBS for 20 min at 37 °C under dark conditions. After staining, the cells were washed with PBS again and incubated with 50 μM TBHP solution (Sigma-Aldrich, St. Louis, MO, USA). Cells were treated time-dependently (10, 30 min and 1 h) with the indicated concentrations of SPs and their glycosides in 0.1% bovine serum albumin containing culture media after DCFDA incubation. The ROS level was analyzed by a fluorescence microplate reader (SpectraMax Gemini XPS/EM, Molecular Devices, Sunnyvale, CA, USA) set at an excitation wavelength of 485 nm and an emission wavelength of 545 nm. Relative fluorescence intensity of controls was equated to 100%, with treatment conditions estimated proportionally.
The in vitro antioxidant activity of SP aglycones and their corresponding glycosides was evaluated through their DPPH-driven radical scavenging abilities in comparison with a well-known antioxidant, L-ascorbic acid. […] Although the mean IC50 values of HPP2G and HPP2DG appear to be a little lower than those of HPP3G and HPP3DG, respectively, there was, however, no statistically significant difference found within (also between) these glycoside groups. Next, we implemented a DCFDA cell-based ROS detection assay to determine whether the SP aglycones and their glycoside analogs function in vivo as antioxidants against intracellular ROS synthesis in the above-described B16F10 cells or not. The TBHP-induced cells were further incubated with different concentrations (5.0, 10 and 20 μM) of SPs and their glycosides for varied time periods (10, 30 min and 1 h).

[3] = molecular target: T2, porcine pancreas elastase (Sus scrofa, UniProt P00772); assay: In vitro elastase inhibition with AAAPVN substrate; format: biochemical; details: read-out: elastase inhibitory IC50
T2 construct: purchased Sigma-Aldrich; host or cells: porcine pancreas
Protocol: The in vitro inhibitory effects of SPs and their glycosides on elastase activity (known as anti-wrinkle bioactivities) were assessed using porcine pancreas elastase (Sigma-Aldrich). Its synthetic substrate AAAPVN (Sigma-Aldrich) was dissolved in phosphate buffer (pH 8.0, 200 mM). In each well of a 96-well microplate, the above elastase (20 μL) was mixed with the SPs and their glycosides in the phosphate buffer (150 μL) and then pre-incubated at 25 °C for 15 min prior to substrate AAAPVN (30 μL) supplementation.

[4] = DPPH free radical scavenging assay (in vitro antioxidant activity); details: 100 μM DPPH, 30 °C, 15 min
Protocol: DPPH (1,1-diphenyl-2-picryl-hydrazyl-hydrate) free radical scavenging assay was employed for determining the in vitro antioxidant activity of SP aglycones and their generated glycosides; L-ascorbic acid was utilized as a positive control whereas DMSO only was used as negative control. The antioxidant activities were expressed as IC50 value (as the concentration of an antioxidant at which 50% of inhibition of free radicals). In brief, 1.9 mL of the 100 μM DPPH reagent (in MeOH) was added into 0.1 mL of each sample diluted within 0.1 to 2 mM range (0.1, 0.2, 0.5, 1.0 and 2.0 mM dissolved in DMSO). After being mixed well by shaking for 5 s, the mixtures were then incubated at 30 °C for 15 min, followed by measuring absorbance with a microplate reader at 515 nm.

[5] = design: method as in PMID 35453457; details: read-out: DPPH radical scavenging IC50; cited from earlier work
[6] = test system: B16F10 murine melanoma cells; assay: MTT cytotoxicity assay on B16F10 cells; format: cell-based; details: 48 h treatment, highest 20 mM concentration
Protocol: The cytotoxic effects of SP aglycones and their glycosides on B16F10 cells was determined using a conventional MTT assay. B16F10 murine melanoma cells were routinely maintained in Dulbecco’s modified Eagle’s medium (DMEM) (Gibco, New York, NY, USA) supplemented with 10% heat-inactivated fetal bovine serum (Gibco), 100 units/mL penicillin and 100 μg/mL streptomycin (Gibco) at 37 °C under humidified 5% CO2 atmosphere. For the assay, these B16F10 cells were seeded in advance in 24-well plastic tissue culture plates at a density of 2 × 10^3 cells/well. After 24 h cultivation, the cells within individual wells were treated with the indicated concentrations of SPs and their glycosides for 48 h. The cells were incubated with MTT solution for additional 4 h in the dark, and the reduced formazan crystals were then dissolved in DMSO; the DMSO percentage in the media was kept below 0.5%. The resulting mixture was transferred to a 96-well microplate, and then the absorbance was measured at 570 nm using a SpectraMax microplate reader (Molecular Devices, Sunnyvale, CA, USA).
[…]. The treatment concentrations of SP aglycones and their glycosides for the bioassays were selected in advance by monitoring their cytotoxicity against the B16F10 murine melanoma cell line using α-arbutin as the reference. […]

[7] = test system: melanin biosynthesis in B16F10 murine melanoma cells; assay: Inhibition of α-MSH-induced cellular melanin biosynthesis in B16F10 cells; format: cell-based; details: fixed 20 μM treatments, 48 h, 2 μM α-MSH
Protocol: The inhibitory effects of SPs and their glycosides towards cellular melanin biosynthesis were examined using the above-described B16F10 murine melanoma cells. After 24 h seed cultivation in a 24-well plate, these cells were treated with the indicated concentrations of SPs and their glycosides for a further 48 h in the presence of 2 μM α-melanocyte stimulating hormone (α-MSH, Sigma-Aldrich). After washing twice with chilled Dulbecco’s PBS supplemented with calcium chloride and magnesium chloride, the resulting cells were treated with trypsin-EDTA solution (Sigma-Aldrich) to recover melanoma cells. After centrifugation at 1000× […] for 3 min, the cell pellet recovered was dissolved in 100 μL of 1 M NaOH solution (containing 10% DMSO) at 55 °C for 1 h. The melanin content was determined by the absorbance at 405 nm using a microplate reader according to the calibration curve obtained from melanin (Sigma-Aldrich) standards, and melanin synthesis inhibitory activities were expressed as the percentage inhibition of cellular melanin synthesis in the above assay; α-arbutin was used as positive control, while DMSO only was used as negative control.

[8] = test system: B16F10 murine melanoma cells; design: method as in PMID 28467382; details: concentrations less than 5.0 mM; cited from earlier work
[9] = test system: recombinant StSPGT glycosyltransferase; assay: Michaelis-Menten kinetics of recombinant StSPGT glycosyl transfer; format: biochemical, Streptomyces tenjimariensis ATCC 31603
Source text: (§1) To learn more details about the enzymatic function of a recombinant StSPGT, we investigated and determined its bio-catalytic properties using two nucleotide sugars as the glycosyl donor substrates; the production velocities of the corresponding glycosides were plotted against the varied glycosyl donor concentrations, […] with fixed acceptor concentrations. […]
(§2) the pGEM T-Easy vector (Promega, Madison, WI, USA) and transformed into E. coli XL1-Blue strain (Stratagene, La Jolla, CA, USA). The resultant plasmid obtained from was sequenced; the amplified ORF of interest (annotated as StSPGT) was deposited as GenBank Accession No.
The NdeI/XhoI-digested fragment excised from the aforementioned pGEM T-Easy vector was cloned into the same sites of the expression vector pET-28a(+) (Novagen, San Diego, CA, USA) and expressed as an N-terminal fusion protein with an His6 tag in E. coli BL21(DE3) strain (selected with […] kanamycin). After induction using 0.5 mM IPTG (Sigma-Aldrich) followed by an overnight incubation at 22°C, the cells were harvested and then disrupted by ultrasonication. The His6-tagged protein from the lysate was purified with TALON-metal affinity resin (Clontech, Mountain View, CA, USA) equilibrated with 50 mM phosphate buffer (0.3 M NaCl, 20 mM imidazole) and incubated at 4°C for 1 hr. After 5 min of refrigerated centrifuge at 2000 rpm, the resin was introduced into a disposable column and washed with phosphate buffer containing 20 mM imidazole, equivalent to 8 times the amount of the resin. Finally, recombinant […]
imidazole . The protein concentration was determined according to the Bradford method and the purified StSPGT was stored at −20°C prior to enzymatic reactions.
In vitro Enzymatic GT Reactions and Its Kinetic Studies
After dissolving two SP acceptor substrates, including HPP2 and HPP3, in methanol at 100 mM, we diluted them with a reaction buffer solution (50 mM phosphate buffer, 10 mM magnesium chloride and 1 mg/mL bovine serum albumin; pH 7.4) to the final concentration of 1 mM. Then we added 30 μM StSPGT glycosyltransferase along with four different nucleotide-activated glycosyl […]
GT reaction at 30°C for 30 min. After reaction, an equal volume of ethyl acetate was immediately added to quench the reaction. The organic solvent layer was evaporated to dryness at 40°C by […]
vacuum centrifugation (EYELA, Tokyo, Japan), and finally reconstituted in methanol prior to HPLC-tandem mass spectrometric (MS/MS) analysis.
For the determination of the kinetic parameters for each SP acceptor substrate, the concentration of glycosyl donor was fixed at 2 mM, while the concentration of SP was varied from […]

StSPGT [10] = test system: T3, StSPGT; assay: Michaelis-Menten kinetics of glycosyl transfer by HPLC-MS/MS product quantitation, donor varied 0.1-1.2 mM at fixed 1.0 mM acceptor HPP2, 50 mM phosphate pH 7.4, 10 mM MgCl2, 30 °C.; format: biochemical; details: SD, n = 3
T3 construct: recombinant, N-terminal His6 tag, pET-28a(+), expressed in E. coli BL21(DE3)
Source text: as §1, §2
(§3) The NdeI/XhoI-digested fragment excised from the aforementioned pGEM T-Easy vector was cloned into the same sites of the expression vector pET-28a(+) (Novagen, San Diego, CA, USA) and expressed as an N-terminal fusion protein with an His6 tag in E. coli BL21(DE3) strain (selected with […] kanamycin). After induction using 0.5 mM IPTG (Sigma-Aldrich) followed by an overnight incubation at 22°C, the cells were harvested and then disrupted by ultrasonication. […]
(§4) imidazole . The protein concentration was determined according to the Bradford method and the purified StSPGT was stored at −20°C prior to enzymatic reactions. […]

StSPGT [11] = test system: T3, StSPGT; assay: Michaelis-Menten kinetics of glycosyl transfer by HPLC-MS/MS product quantitation, donor varied 0.1-1.2 mM at fixed 1.0 mM acceptor HPP3, 50 mM phosphate pH 7.4, 10 mM MgCl2, 30 °C.; format: biochemical; details: SD, n = 3
Source text: as §1, §2, §3, §4

T1 sequence (C7FF04 1-392 limits assumed): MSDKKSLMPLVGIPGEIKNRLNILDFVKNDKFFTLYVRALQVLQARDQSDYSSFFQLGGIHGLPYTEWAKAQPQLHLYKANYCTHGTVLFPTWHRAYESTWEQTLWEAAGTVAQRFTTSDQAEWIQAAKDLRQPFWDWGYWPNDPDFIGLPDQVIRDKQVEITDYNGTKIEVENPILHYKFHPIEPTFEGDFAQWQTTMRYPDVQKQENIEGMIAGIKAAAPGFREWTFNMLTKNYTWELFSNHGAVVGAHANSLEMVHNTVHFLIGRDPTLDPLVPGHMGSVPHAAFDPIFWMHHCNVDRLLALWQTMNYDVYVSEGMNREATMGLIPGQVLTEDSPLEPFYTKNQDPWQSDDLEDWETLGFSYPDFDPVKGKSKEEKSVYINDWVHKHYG
T2 sequence (P00772 27-266): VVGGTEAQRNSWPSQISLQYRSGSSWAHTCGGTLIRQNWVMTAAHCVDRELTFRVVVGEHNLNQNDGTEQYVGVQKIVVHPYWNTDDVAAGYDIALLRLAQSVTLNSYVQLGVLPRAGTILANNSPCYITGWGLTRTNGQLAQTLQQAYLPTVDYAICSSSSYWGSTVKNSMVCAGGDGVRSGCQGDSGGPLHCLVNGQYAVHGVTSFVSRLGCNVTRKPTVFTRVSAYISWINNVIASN

In the case of `Oc1ccc(O)cc1` [hydroquinone, reference compound], the IC50 [1] is reported as 10.3 µM.

In the case of `CC(Cc1ccc(O)cc1)O[C@H]1O[C@H](CO)[C@@H](O)[C@H](O)[C@H]1O` (stereo partly drawn) [HPP2G, hydroxyphenyl-2-propanoyl-O-α-glucoside], the “maximal ROS-scavenging activity” value [2] is reported as 52.0%, the IC50 [1] is reported as 14.8 µM and the IC50 [3] is reported as 22.1 µM.

With `CCC(O[C@H]1O[C@H](CO)[C@@H](O)[C@H](O)[C@H]1O)c1ccc(O)cc1` (stereo partly shown) [HPP3G] the “maximal ROS-scavenging activity” value [2] was 48.9%, the IC50 [1] was 29.1 µM and the IC50 [3] was 31.5 µM.

In the case of `O=C1O[C@H]([C@@H](O)CO)C(O)=C1O` [L-ascorbic acid, reference compound], the IC50 [4] is listed as 23 µM and the IC50 [5] is listed as 22 µM.

For `OC[C@H]1O[C@H](Oc2ccc(O)cc2)[C@H](O)[C@@H](O)[C@@H]1O` [α-arbutin], the “change of cell viability” value [6] is given as “less than 5 % of the control”, the “inhibition of α-MSH-induced intracellular melanin biosynthesis” value (shortened to “inhibition”) [7] is given as “about 20.3%” and the “cytotoxicity for the B16F10 cells” value [8] is given as “no cytotoxicity”.

In the case of `CC(O)Cc1ccc(O)cc1` (stereo not shown) [HPP2], the IC50 [4] is reported as 18.5 µM, the IC50 [1] is reported as 11.6 µM and the “fold higher tyrosinase inhibitory effect than kojic acid” value [1] is reported as “about 6.6 fold”. The “inhibition” value [7] was 50.3%, the IC50 [3] was 95.3 µM and the kcat ([9]; donor TDP-2′dGlc) was 0.2155 ± 0.0363 s⁻¹. For the same compound, the kcat ([9]; donor UDP-Glc) was 0.3235 s⁻¹ and 0.3235 ± 0.0537 s⁻¹.

With `CCC(O[C@@H]1C[C@@H](O)[C@H](O)[C@@H](CO)O1)c1ccc(O)cc1` (stereo partly shown) [HPP3DG] the “maximal ROS-scavenging activity” value [2] was 45.7%, the IC50 [1] was 30.9 µM and the IC50 [3] was 30.7 µM.

With `CCC(O)c1ccc(O)cc1` (stereo not shown) [HPP3] the IC50 [4] was 19.3 µM, the IC50 [1] was 23.4 µM and the “fold higher tyrosinase inhibitory effect than kojic acid” value [1] was roughly 3.3 fold. For the same compound, the “inhibition” value [7] was 21.7%, the IC50 [3] was 99.1 µM and the kcat ([9]; donor TDP-2′dGlc) was 0.1865 ± 0.0372 s⁻¹. For the same compound, the kcat ([9]; donor UDP-Glc) was 0.2812 s⁻¹ and 0.2812 ± 0.0497 s⁻¹.

For `CC(Cc1ccc(O)cc1)O[C@@H]1C[C@@H](O)[C@H](O)[C@@H](CO)O1` (stereo partly drawn) [HPP2DG, hydroxyphenyl-2-propanoyl-O-α-2″-deoxyglucoside], the “maximal ROS-scavenging activity” value [2] was 54.3%, the IC50 [1] was 13.8 µM and the IC50 [3] was 25.3 µM.

`Cc1cn([C@H]2C[C@H](O)[C@@H](COP(=O)(O)OP(=O)(O)O[C@@H]3C[C@@H](O)[C@H](O)[C@@H](CO)O3)O2)c(=O)[nH]c1=O` [TDP-2′dGlc, thymidine diphosphate-2′-deoxyglucose] showed a Km (StSPGT [10]) of 0.41 ± 0.07 mM and a Km (StSPGT [11]) of 0.5 ± 0.09 mM.

— article PMC9312196, “Enzymatic Biosynthesis of Simple Phenolic Glycosides as Potential Anti-Melanogenic Antioxidants” (Antioxidants, 2022)
